These results are taken from EP2608770B1, “INHALABLE GASEOUS DRUG CONTAINING KRYPTON FOR TREATING NEURO-INTOXICATION” (L'Air Liquide Société Anonyme pour l'Etude et …, priority 2010, dated 2012).

This experiment relates to U2OS. The experiment in a line: Cell death and apoptosis in U2OS cells exposed to cytotoxic agents (staurosporine, rotenone, antimycin A, menadione, mitoxantrone) under a krypton atmosphere, read by automated fluorescence microscopy. In kind it is cell-based. The following applies: cells kept in an atmosphere formed of krypton, measured after 6 and 16 hours of incubation. An excerpt:
Des essais ont été réalisés pour démontrer que le krypton présente un effet protecteur cérébral de par sa capacité à protéger la cellule du phénomène de la mort cellulaire programmée ou apoptose, qui est la conséquence ultime des neuro-intoxications telles que décrites dans le syndrome d'ischémie-reperfusion, d'addictions... […]
Les cellules ont été ensuite analysées dans un automate BD Pathway Fluorescence Microscope afin de déterminer les paramètres suivants : • apoptose cellulaire définit par GFP-H2B ou DAPI-condensation chromatine mesurable), • autophagie définit par GFP-LC3 puncta, • nécrose définit par l'exsudation de HMGB1 du noyau, • aberrations mitotiques définit par GFP-H2B et Red-Centrin, • niveau de stress ER définit par GFP-G3B puncta, • cycle cellulaire définit par l'incorporation de […] dans les cellules en phase S, ainsi que l'analyse du DNA. […]

In the case of `[Kr]` [krypton], the “capacités fonctionnelles et intégrité physiques des cellules” value is “conservent leurs capacités fonctionnelles ainsi que leur intégrité physiques”. Besides, the “signes d'apoptose cellulaire” value (apoptosis defined by GFP-H2B or DAPI chromatin condensation) is listed as “diminue les signes d'apoptose cellulaire”.
